Source: patent US5616606A, “Oligopeptide antiretroviral agents” (priority 1995, dated 1997)
Where “and” joins values, the source holds several entries; their conditions need not be identical. Equal entries are not always repeated.

Experiments:
SC-1 cells = assay: toxicity TD50 reported with the anti-MLV test; conditions: Table IV
[1] = system: Moloney murine leukemia virus (MLV); assay: anti-Moloney murine leukemia virus (MLV) plaque test; format: cell-based; conditions: anti-MLV plaque count
[2] = biological target: Moloney Leukemia Virus reverse transcriptase (Moloney murine leukemia virus, UniProt P03355); assay: inhibition of MLV associated reverse transcriptase activity
poly(dA-dT) = assay: ethidium displacement assay, poly(dA-dT); conditions: relative to ethidium 9.5 × 10^6 M^-1, average of repeat measurements
calf thymus DNA = assay: ethidium displacement assay, drug-DNA binding constant, calf thymus DNA; conditions: relative to ethidium 10^7 M^-1, average of repeat measurements
2.2.15 cells = assay: toxicity analysis, neutral red dye uptake in 2.2.15 cells; conditions: triplicate, ± standard deviation
[3] = solubility in DMSO, MeOH, H2O; format: physicochemical
HBV = assay: inhibition of HBV DNA replication in 2.2.15 cell cultures; format: cell-based; conditions: for INT[…] DNA MONO.: 24 hours following the 9th day of treatment
[4] = 10 μM, single well, dihydrochloride
[5] = 50 μM, single well, dihydrochloride

Cc1cn([C@H]2C[C@H](N=[N+]=[N-])[C@@H](CO)O2)c(=O)[nH]c1=O [AZT]
Toxicity, TD50 (SC-1 cells): > 100.00 ug/mL^-1
Activity, MIC50 [1]: 1.4 ng/mL

O=C(O)C1=CC(=C(c2ccc(O)c(C(=O)O)c2)c2ccc(O)c(C(=O)O)c2)C=CC1=O [Aurintricarboxylic acid, reference compound]
IC50 [2]: 3.36 µM

Cn1cc(NC(=O)c2cc(NC(=O)CNC(=N)N)cn2C)cc1C(=O)NCCC(=N)N [Compound 1, reference compound]
Kapp (poly(dA-dT)): 9.4e+07 M⁻¹
DNA Binding Constant (calf thymus DNA): 1.9e+07 M⁻¹

Cl.Cl.Cn1cc(NC(=O)c2cc(NC(=O)Nc3cc(C(=O)Nc4cc(C(=O)NCCC(=N)N)n(C)c4)n(C)c3)cn2C)cc1C(=O)NCCC(=N)N [Compound 3, N,N'-Di(1-methyl-2-[1-methyl-2-carboxamido(3-propionamidine)-4-pyrrole]-4-pyrrolyl)urea dihydrochloride]
NEUTRAL RED DYE UPTAKE (2.2.15 cells; 10 μg/ml): 99 ± 1 % OF CONTROL
NEUTRAL RED DYE UPTAKE (2.2.15 cells; 30 μg/ml): 99 ± 1 % OF CONTROL
NEUTRAL RED DYE UPTAKE (2.2.15 cells; 100 μg/ml): 99 ± 2 % OF CONTROL
NEUTRAL RED DYE UPTAKE (2.2.15 cells; 300 μg/ml): 82 ± 2 % OF CONTROL
Solubility in DMSO ([3]; DMSO): good
Solubility in H2O ([3]; H2O): good
EC50 (HIV-1; Table XI): 11.9 µM
Anti-HIV-1 Activity (National Cancer Institute Designation) (HIV-1; inactive, moderate or active): Moderate
DNA Binding Constant (calf thymus DNA): 5.6e+07 M⁻¹
INT[…] DNA MONO. (HBV; [4]): 2.8 pg/μg CELL DNA and 2.2 pg/μg CELL DNA and 2.6 pg/μg CELL DNA and 2.5 pg/μg CELL DNA
HBV VIRION DNA DAY 0 (HBV; [4]): 57 pg/ml CULTURE MEDIUM and 64 pg/ml CULTURE MEDIUM and 74 pg/ml CULTURE MEDIUM and 60 pg/ml CULTURE MEDIUM
HBV VIRION DNA DAY 9 (HBV; [4]): 69 pg/ml CULTURE MEDIUM and 74 pg/ml CULTURE MEDIUM and 94 pg/ml CULTURE MEDIUM and 92 pg/ml CULTURE MEDIUM
INT[…] DNA MONO. (HBV; [5]): 2.9 pg/μg CELL DNA and 2.2 pg/μg CELL DNA and 2.4 pg/μg CELL DNA
HBV VIRION DNA DAY 0 (HBV; [5]): 58 pg/ml CULTURE MEDIUM and 68 pg/ml CULTURE MEDIUM and 81 pg/ml CULTURE MEDIUM
HBV VIRION DNA DAY 6 (HBV; 50 μM, day 6, single well, dihydrochloride): 67 pg/ml CULTURE MEDIUM and 44 pg/ml CULTURE MEDIUM and 78 pg/ml CULTURE MEDIUM and 76 pg/ml CULTURE MEDIUM
HBV VIRION DNA DAY 9 (HBV; 50 μM, single well, zero = undetectable, cutoff 0.1 pg/ml, dihydrochloride): 16 pg/ml CULTURE MEDIUM and 13 pg/ml CULTURE MEDIUM and 19 pg/ml CULTURE MEDIUM and 10 pg/ml CULTURE MEDIUM
effect on HBV replication (in words) (HBV; tested at 50 and 10 μM, compared with 2',3'-ddC): weak inhibitor
